From patent US11945811B2, “Potassium channel inhibitors” (ACESION PHARMA APS, priority 2021, dated 2024)

Molecular target: T1, human SK3 channel (hKCa2.3) (Homo sapiens, UniProt Q9UGI6)
T1 construct: expressed in transfected cells
Assay: Automated patch clamping (QPatch 16 HT whole-cell recordings)
Format: cell-based
Settings: HEK-293 cells stably expressing hKCa2.3; currents measured at −80 mV; normalized to N-methyl bicuculline; read-out: IC50 in the Automated patch clamping assay (SK3 channel inhibition)
Experimental: Automated whole cell patch-clamp recordings were performed using a QPatch 16 HT system and single-hole Qplates (Sophion, Denmark) on HEK-293 cells stably expressing the human SK3 channel (hKCa2.3). Cells were cultured and prepared for experiments using normal cell culturing procedures. A total of 4-5 million cells were used per experiment. The Qpatch automatically generates giga sealing, whole-cell formation, compound application and recording of current. hKCa2.3 currents were recorded in symmetrical K^+ solutions. The intracellular/pipette solution contained 154 mM KCl, 10 mM HEPES and 10 mM EGTA. CaCl2 is added to give calculated free concentrations of Ca^2+ of 0.4 μM and MgCl2 is added to give a free concentration of 1 mM. In order to maintain a total [K^+] of 156 mM (corresponding to the concentration in the extracellular ringer) a fixed amount of KOH (15 mM) is added, thereafter pH is adjusted with HCl to pH=7.2. Expected osmolarity: 275 mOsm. Sucrose was added to a final osmolarity around 295 mosm. The extracellular solution consisted of (in mM): CaCl2 0.1, MgCl2 3, KCl 150, HEPES 10 and glucose 10, pH=7.4 adjusted with KOH. Osmolarity between 285-295 mosm. The cells were held at 0 mV and hKCa2.3 currents were elicited by a linear voltage ramp from −80 mV to +80 mV (200 ms in duration) applied every 5th second.
The compound application protocol consisted of 12 recording periods lasting 200 s: 1) Baseline recordings in extracellular solution; 2) Application of the positive control N-methyl bicuculline (100 μM), which is characterized by full efficacy, fast on- and off-rate; 3-4) Wash-out; 5-10) Increasing concentrations of test compound to establish an IC50 value; 11-12) Wash-out; 13) positive control with compound NS8593 (N-[(1R)-1,2,3,4-tetrahydro-1-naphthalenyl]-1H-benzimidazol-2-amine) (1 μM) or with N-methyl bicuculline (100 μM). Data were sampled at 10 kHz, 4th order Bessel filter, cut-off frequency 3 kHz. Currents were compensated for run-down. Potency was quantified as the concentration needed to inhibit half of the SK channel activity and reported as an IC50 value.
All effects of compounds of the present invention as tested were normalized to the observed inhibitory effect of N-methyl bicuculline. Currents were measured at −80 mV.

| SMILES | IC50 [µM] |
| --- | --- |
| COCC(C)(Nc1nc2c(Cn3ccoc3=N)cccc2[nH]1)c1ccc(F)c(Cl)c1 (centres unmarked) [Example 14, N-[2-(3-chloro-4-fluorophenyl)-1-methoxypropan-2-yl]-4-[(2-imino-2,3-dihydro-1,3-oxazol-3-yl)methyl]-1H-1,3-benzodiazol-2-amine] | < 30 |
| CC(CO)(Nc1nc2c(Cn3ccoc3=N)cccc2[nH]1)c1cccc(C(F)(F)F)c1 (centres unmarked) [Example 18, 2-({4-[(2-imino-2,3-dihydro-1,3-oxazol-3-yl)methyl]-1H-1,3-benzodiazol-2-yl}amino)-2-[3-(trifluoromethyl)phenyl]propan-1-ol] | < 1 |
| CC(C)(Nc1nc2c(Cn3ccoc3=N)cccc2[nH]1)c1cccc(C(F)(F)F)c1 [Example 7, 4-[(2-imino-2,3-dihydro-1,3-oxazol-3-yl)methyl]-N-{2-[3-(trifluoromethyl)phenyl]propan-2-yl}-1H-1,3-benzodiazol-2-amine] | < 1 |
| CC(CO)(Nc1nc2c(CN3CCNC3=O)cccc2[nH]1)c1ccc(F)c(Cl)c1 (centres unmarked) [Example 34, 1-[(2-{[2-(3-chloro-4-fluorophenyl)-1-hydroxypropan-2-yl]amino}-1H-1,3-benzodiazol-4-yl)methyl]imidazolidin-2-one] | < 30 |
| CC(CO)(Nc1nc2c(Cn3ccoc3=N)cccc2[nH]1)c1cccc(OC(F)(F)F)c1 (centres unmarked) [Example 27, 2-({4-[(2-imino-2,3-dihydro-1,3-oxazol-3-yl)methyl]-1H-1,3-benzodiazol-2-yl}amino)-2-[3-(trifluoromethoxy)phenyl]propan-1-ol] | < 1 |
| Cc1cn(Cc2cccc3[nH]c(NC(C)(CO)c4cccc(OC(F)(F)F)c4)nc23)c(=N)o1 (centres unmarked) [Example 30, 2-({4-[(2-imino-5-methyl-2,3-dihydro-1,3-oxazol-3-yl)methyl]-1H-1,3-benzodiazol-2-yl}amino)-2-[3-(trifluoromethoxy)phenyl]-propan-1-ol] | < 1 |
| CC(Nc1ncco1)c1cccc2[nH]c(NC(C)(CO)c3ccc(F)c(Cl)c3)nc12 (centres unmarked) [Example 31, 2-(3-chloro-4-fluorophenyl)-2-[(4-{1-[(1,3-oxazol-2-yl)amino]ethyl}-1H-1,3-benzodiazol-2-yl)amino]propan-1-ol] | < 30 |
| CC(CO)(Nc1nc2c(CNc3ccncn3)cccc2[nH]1)c1ccc(F)c(Cl)c1 (centres unmarked) [Example 11, 2-(3-chloro-4-fluorophenyl)-2-[(4-{[(pyrimidin-4-yl)amino]methyl}-1H-1,3-benzodiazol-2-yl)amino]propan-1-ol] | < 30 |
| CC(CO)(Nc1nc2c(Cn3ccoc3=N)cccc2[nH]1)c1ccc(Cl)c(Cl)c1 (centres unmarked) [Example 19, 2-(3,4-dichlorophenyl)-2-({4-[(2-imino-2,3-dihydro-1,3-oxazol-3-yl)methyl]-1H-1,3-benzodiazol-2-yl}amino)propan-1-ol] | < 1 |
| Cc1oc(=N)n(Cc2cccc3[nH]c(NC(C)(CO)c4cccc(C(F)(F)F)c4)nc23)c1C (centres unmarked) [Example 28, 2-({4-[(2-imino-4,5-dimethyl-2,3-dihydro-1,3-oxazol-3-yl)methyl]-1H-1,3-benzodiazol-2-yl}amino)-2-[3-(trifluoromethyl)phenyl]-propan-1-ol] | < 30 |

The next lines start with the values.

| IC50 [µM] | SMILES |
| --- | --- |
| < 1 | CC(CO)(Nc1nc2c(Cn3ccoc3=N)cccc2[nH]1)c1cccc(C(F)(F)F)c1 (single isomer, unassigned; (-)) [Example 18a, (−)-2-({4-[(2-imino-2,3-dihydro-1,3-oxazol-3-yl)methyl]-1H-1,3-benzodiazol-2-yl}amino)-2-[3-(trifluoromethyl)-phenyl]propan-1-ol] |
| < 30 | CC(CO)(Nc1nc2c(CNc3ncco3)cccc2[nH]1)c1cccc(Cl)c1F (single isomer, unassigned; (+)) [Example 42a, (+)-2-(3-chloro-2-fluorophenyl)-2-[(4-{[(1,3-oxazol-2-yl)amino]methyl}-1H-1,3-benzodiazol-2-yl)amino]propan-1-ol] |
| < 30 | CC(CO)(Nc1nc2c(Cn3ccoc3=N)cccc2[nH]1)c1cc(Cl)ccc1F (single isomer, unassigned; (+)) [Example 47b, (+)-2-(5-chloro-2-fluorophenyl)-2-({4-[(2-imino-2,3-dihydro-1,3-oxazol-3-yl)methyl]-1H-1,3-benzodiazol-2-yl}amino)propan-1-ol] |
| < 1 | CC(CO)(Nc1nc2c(Cn3ccsc3=N)cccc2[nH]1)c1ccc(F)c(Cl)c1 (single isomer, unassigned; (-)) [Example 32a, (−)-2-(3-chloro-4-fluorophenyl)-2-({4-[(2-imino-2,3-dihydro-1,3-thiazol-3-yl)methyl]-1H-1,3-benzodiazol-2-yl}amino)propan-1-ol] |
| < 30 | CC(CO)(Nc1nc2c(Cn3ccoc3=N)cccc2[nH]1)c1ccc(Cl)c(Cl)c1 (single isomer, unassigned; (+)) [Example 19b, (+)-2-(3,4-dichlorophenyl)-2-({4-[(2-imino-2,3-dihydro-1,3-oxazol-3-yl)methyl]-1H-1,3-benzodiazol-2-yl}amino)propan-1-ol] |
| < 1 | Cc1coc(=N)n1Cc1cccc2[nH]c(NC(C)(CO)c3ccc(F)c(Cl)c3)nc12 (single isomer, unassigned; (-)) [Example 13a, (−)-2-(3-chloro-4-fluorophenyl)-2-({4-[(2-imino-4-methyl-2,3-dihydro-1,3-oxazol-3-yl)methyl]-1H-1,3-benzodiazol-2-yl}amino)propan-1-ol] |
| < 30 | CC(CO)(Nc1nc2c(Cn3ccoc3=N)cccc2[nH]1)c1cccc(Cl)c1 (single isomer, unassigned; (+)) [Example 3b, (+)-2-(3-chlorophenyl)-2-({4-[(2-imino-2,3-dihydro-1,3-oxazol-3-yl)methyl]-1H-1,3-benzodiazol-2-yl}amino)propan-1-ol] |
